Key:
KRAS (G12D) = target: T1, KRAS (G12D) (Homo sapiens, UniProt P01116, G12D); experiment: KRAS (G12D) cellular degradation assay in AsPC-1 cells; format: cell-based; conditions: 24 hours, antibody fluorescence (Odyssey CLX), DC50 half-maximal degradation concentration
T1 construct: in-cell western with KRAS G12D antibody after 24 h
Procedure, shortened: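 AsPC-1 cells: for degradation, grown to ~90% confluency, treated 24 h with 1:3 compound series ([…] to 1.5 nM), then fixed and immunostained for KRAS G12D and β-actin, read by infrared fluorescence, DC50 fitted. Proliferation: 3,500 cells/well, 6-day treatment, CellTiter Glo luminescence, IC50 fitted.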

AsPC-1 cells = experiment: AsPC-1 cell proliferation assay (CellTiter Glo); format: cell-based; conditions: Homo sapiens, ASPC1, 144 h, 6 days
Experimental: ASPC-1 and PK-59 cellular assays ASPC-1 (ATCC cat. CRL-1682) and PK-59 (Nanjing Cobioer, Cat. No. CBP61184) were used in KRAS cellular degradation, pERK inhibition and proliferation assays. The two cell lines were maintained following vendor's instructions. For monitoring KRAS (G12D) cellular degradation and pERK biomarker inhibition, cells were seeded into a 96-well plate with 22,000 and 16,000 cells/well for assays in ASPC-1 and PK-59, respectively. Cells were incubated at 37° C. with 5% CO2 and cell density was monitored until ^~90% confluency was reached. Compounds were serially diluted at a 1:3 ratio and dispensed into each well at final concentrations ranging from […] to 1.5 nM. After incubation for 24 hours, the culture media were removed and the cells were subjected to fixation, permeabilization and blocking (Intercept blocking buffer, Li-cor). For KRAS (G12D) degradation, the cells were treated with primary antibody (KRAS G12D antibody, Cell Signaling Technologies, Cat. No. CST14429) and for β-actin (β-actin mAb, Beyotime, Cat. No. AF-5001), and followed by secondary antibodies, Anti-rabbit IgG (H+L) (DyLight™ 800 4×PEG Conjugate) or IRDye® 680RD Goat anti-Mouse IgG. For pERK inhibition assay, cells were treated with primary antibodies for pERK (Phospho-p44/42 MAPK (Erk1/2) (Thr202/Tyr204) (D13.14.4E) XP® Rabbit mAb, Cell Signaling Technologies, Cat. No. CST-4370) and β-actin (β-actin mAb, Beyotime, Cat. No. AF-5001), and followed by secondary antibodies, Anti-rabbit IgG (H+L) (DyLight™ 800 4×PEG Conjugate) or IRDye® 680RD Goat anti-Mouse IgG. Fluorescence signals were read on Odyssey CLX instrument. For cell proliferation assays, cells were seeded into a 96-well plate at 3,500 and 800 cells/well for assays in ASPC-1 and PK-59, respectively. Cells were incubated at 37° C. with 5% CO2 for overnight. Compounds were serially diluted at a 1:3 ratio and dispensed into each well at final concentrations ranging from […] to 1.5 nM. After incubation for 6 days, cell viability reagent (CellTiter Glo, Promega, Cat. No. G7573) was added to each well and luminescence was recorded on Molecular Devices Spectramax iD3 instrument. IC50, half-maximal inhibitory concentration for pERK inhibition or cell proliferation, and DC50, half-maximal degradation concentration in KRAS (G12D) cellular degradation were determined by fitting the corresponding dose response curves using GraphPad Prism software.
Wherein “A” means the value <10 nM, “B” means 10 nM<the value <100 nM, “C” means 100 nM<the value <1000 nM, and “D” means the value >1000 nM, in which, the value means the value of DC50 or IC50. NT means not tested.

T1 sequence (P01116 1-188 isoform P01116-2 G12D): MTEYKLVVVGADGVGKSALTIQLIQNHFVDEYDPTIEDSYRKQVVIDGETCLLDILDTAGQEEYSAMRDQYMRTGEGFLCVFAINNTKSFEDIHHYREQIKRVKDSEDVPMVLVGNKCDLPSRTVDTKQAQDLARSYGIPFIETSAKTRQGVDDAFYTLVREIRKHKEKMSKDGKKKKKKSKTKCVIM

SMILES	DC50 (KRAS (G12D))	IC50 (AsPC-1 cells)
CO[C@@H](C)COc1nc(N2C[C@@H]3C[C@H]2CN3)c2cc(C3CC3)c(-c3c(C)c(F)cc4[nH]ncc34)c(OCc3ccc(-c4cn([C@H](C(=O)N5C[C@H](O)C[C@H]5C(=O)N[C@H](C#Cc5cccc6ncsc56)CO)C(C)C)nn4)cc3)c2n1 [Example 92, (2S,4R)-1-((2S)-2-(4-(4-(((4-((1S,4S)-2,5-diazabicyclo[2.2.1]heptan-2-yl)-6-cyclopropyl-7-(6-fluoro-5-methyl-1H-indazol-4-yl)-2-((S)-2-methoxypropoxy)quinazolin-8-yl)oxy)methyl)phenyl)-1H-1,2,3-triazol-1-yl)-3-methylbutanoyl)-N—((R)-4-(benzo[d]thiazol-7-yl)-1-hydroxybut-3-yn-2-yl)-4-hydroxypyrrolidine-2-carboxamide]	< 10 nM	< 10 nM
CCn1nccc1-c1ccc([C@H](CO)NC(=O)[C@@H]2C[C@@H](O)CN2C(=O)[C@H](C(C)C)n2cc(-c3ccc(COc4c(-c5c(C)c(F)cc6[nH]ncc56)c(C5CC5)cc5c(N6C[C@@H]7C[C@H]6CN7)nc(OCC6(CC(F)F)CC6)nc45)cc3)nn2)cc1 [Example 62, (2S,4R)-1-((2S)-2-(4-(4-(((4-((1S,4S)-2,5-diazabicyclo[2.2.1]heptan-2-yl)-6-cyclopropyl-2-((1-(2,2-difluoroethyl)cyclopropyl)methoxy)-7-(6-fluoro-5-methyl-1H-indazol-4-yl)quinazolin-8-yl)oxy)methyl)phenyl)-1H-1,2,3-triazol-1-yl)-3-methylbutanoyl)-N—((R)-1-(4-(1-ethyl-1H-pyrazol-5-yl)phenyl)-2-hydroxyethyl)-4-hydroxypyrrolidine-2-carboxamide]	< 10 nM	< 10 nM
CCn1nccc1-c1ccc([C@@H](NC(=O)[C@@H]2C[C@@H](O)CN2C(=O)[C@H](C(C)C)n2cc(-c3ccc(COc4c(-c5c(C)c(F)cc6[nH]ncc56)c(C5CCC5)cc5c(N6C[C@@H]7C[C@H]6CN7)nc(O[C@H]6C[C@H](OC)C6)nc45)cc3)nn2)[C@H](C)O)cc1 [Example 136, (2S,4R)-1-((2S)-2-(4-(4-(((4-((1S,4S)-2,5-diazabicyclo[2.2.1]heptan-2-yl)-6-cyclobutyl-7-(6-fluoro-5-methyl-1H-indazol-4-yl)-2-((1r,3S)-3-methoxycyclobutoxy)quinazolin-8-yl)oxy)methyl)phenyl)-1H-1,2,3-triazol-1-yl)-3-methylbutanoyl)-N-((1R,2S)-1-(4-(1-ethyl-1H-pyrazol-5-yl)phenyl)-2-hydroxypropyl)-4-hydroxypyrrolidine-2-carboxamide]	< 10 nM	< 10 nM
CCn1nccc1-c1ccc([C@H](CO)NC(=O)[C@@H]2C[C@@H](O)CN2C(=O)[C@H](C(C)C)n2cc(-c3ccc(COc4c(-c5c(C)c(F)cc6[nH]ncc56)c(C5CC5)cc5c(N6C[C@@H]7C[C@H]6CN7)nc(OC6CC7COCC7C6)nc45)cc3)nn2)cc1 (stereo partly drawn) [Example 104, (2S,4R)-1-((2S)-2-(4-(4-(((4-((1S,4S)-2,5-diazabicyclo[2.2.1]heptan-2-yl)-6-cyclopropyl-7-(6-fluoro-5-methyl-1H-indazol-4-yl)-2-((hexahydro-1H-cyclopenta[c]furan-5-yl)oxy)quinazolin-8-yl)oxy)methyl)phenyl)-1H-1,2,3-triazol-1-yl)-3-methylbutanoyl)-N—((R)-1-(4-(1-ethyl-1H-pyrazol-5-yl)phenyl)-2-hydroxyethyl)-4-hydroxypyrrolidine-2-carboxamide]	< 10 nM	< 10 nM
CO[C@@H](C)COc1nc(N2C[C@@H]3C[C@H]2CN3)c2cc(C3CC3)c(-c3c(C)c(F)cc4[nH]ncc34)c(OCc3ccc(-c4cn([C@H](C(=O)N5C[C@H](O)C[C@H]5C(=O)N[C@H](C#Cc5ccccc5Cl)CO)C(C)C)nn4)cc3)c2n1 [Example 64, (2S,4R)-1-((2S)-2-(4-(4-(((4-((1S,4S)-2,5-diazabicyclo[2.2.1]heptan-2-yl)-6-cyclopropyl-7-(6-fluoro-5-methyl-1H-indazol-4-yl)-2-((S)-2-methoxypropoxy)quinazolin-8-yl)oxy)methyl)phenyl)-1H-1,2,3-triazol-1-yl)-3-methylbutanoyl)-N—((R)-4-(2-chlorophenyl)-1-hydroxybut-3-yn-2-yl)-4-hydroxypyrrolidine-2-carboxamide]	10 to 100 nM	10 to 100 nM
CCn1nccc1-c1ccc([C@@H](NC(=O)[C@@H]2C[C@@H](O)CN2C(=O)[C@H](C(C)C)n2cc(-c3ccc(COc4c(-c5c(C)c(F)cc6[nH]ncc56)c(C5CC5)cc5c(N6C[C@@H]7C[C@H]6CN7)nc(O[C@H]6CC[C@H](OC)C6)nc45)cc3)nn2)[C@H](C)O)cc1 [Example 151, (2S,4R)-1-((2S)-2-(4-(4-(((4-((1S,4S)-2,5-diazabicyclo[2.2.1]heptan-2-yl)-6-cyclopropyl-7-(6-fluoro-5-methyl-1H-indazol-4-yl)-2-(((1S,3S)-3-methoxycyclopentyl)oxy)quinazolin-8-yl)oxy)methyl)phenyl)-1H-1,2,3-triazol-1-yl)-3-methylbutanoyl)-N-((1R,2S)-1-(4-(1-ethyl-1H-pyrazol-5-yl)phenyl)-2-hydroxypropyl)-4-hydroxypyrrolidine-2-carboxamide]	< 10 nM	< 10 nM
CCn1nccc1-c1ccc([C@@H](NC(=O)[C@@H]2C[C@@H](O)CN2C(=O)[C@H](C(C)C)n2cc(-c3ccc(COc4c(-c5c(C)c(F)cc6[nH]ncc56)c(C5CC5)cc5c(N6C[C@@H]7C[C@H]6CN7)nc(OC6CCC(OC)CC6)nc45)cc3)nn2)[C@@H](C)O)cc1 (stereo partly drawn) [Example 127, (2S,4R)-1-((2S)-2-(4-(4-(((4-((1S,4S)-2,5-diazabicyclo[2.2.1]heptan-2-yl)-6-cyclopropyl-7-(6-fluoro-5-methyl-1H-indazol-4-yl)-2-((4-methoxycyclohexyl)oxy)quinazolin-8-yl)oxy)methyl)phenyl)-1H-1,2,3-triazol-1-yl)-3-methylbutanoyl)-N-((1R,2R)-1-(4-(1-ethyl-1H-pyrazol-5-yl)phenyl)-2-hydroxypropyl)-4-hydroxypyrrolidine-2-carboxamide]	< 10 nM	< 10 nM
CO[C@H]1C[C@H](Oc2nc(N(C)[C@@H]3CCNC3)c3cc(C4CC4)c(-c4c(C)c(F)cc5[nH]ncc45)c(OCc4ccc(-c5cn([C@H](C(=O)N6C[C@H](O)C[C@H]6C(=O)N[C@H](c6ccc(-c7scnc7C)cc6)[C@H](C)O)C(C)C)nn5)cc4)c3n2)C1 [Example 202, (2S,4R)-1-((2S)-2-(4-(4-(((6-cyclopropyl-7-(6-fluoro-5-methyl-1H-indazol-4-yl)-2-((1r,3R)-3-methoxycyclobutoxy)-4-(methyl((R)-pyrrolidin-3-yl)amino)quinazolin-8-yl)oxy)methyl)phenyl)-1H-1,2,3-triazol-1-yl)-3-methylbutanoyl)-4-hydroxy-N-((1R,2S)-2-hydroxy-1-(4-(4-methylthiazol-5-yl)phenyl)propyl)pyrrolidine-2-carboxamide]	< 10 nM	< 10 nM
Cc1ncsc1-c1ccc([C@@H](NC(=O)[C@@H]2C[C@@H](O)CN2C(=O)[C@H](C(C)C)n2cc(-c3ccc(COc4c(-c5c(C)c(F)cc6[nH]ncc56)c(C5CC5)cc5c(N(C)[C@H]6CCNC6)nc(OC[C@H]6CCCO6)nc45)cc3)nn2)[C@H](C)O)cc1 [Example 208, (2S,4R)-1-((2S)-2-(4-(4-(((6-cyclopropyl-7-(6-fluoro-5-methyl-1H-indazol-4-yl)-4-(methyl((S)-pyrrolidin-3-yl)amino)-2-(((R)-tetrahydrofuran-2-yl)methoxy)quinazolin-8-yl)oxy)methyl)phenyl)-1H-1,2,3-triazol-1-yl)-3-methylbutanoyl)-4-hydroxy-N-((1R,2S)-2-hydroxy-1-(4-(4-methylthiazol-5-yl)phenyl)propyl)pyrrolidine-2-carboxamide]	< 10 nM	< 10 nM

From patent US20260295053A1, “COMPOUNDS FOR DEGRADATION AND INHIBITION OF KRAS (G12D) PROTEIN” (Shenzhen Ionova Life Science Co., Ltd., priority 2023, published 2026)
